According to article PMC10180065, “Mechanistic Studies of Arene–Ruthenium(II) Complexes with Carbothioamidopyrazoles as Alternative Cancer Drugs” (Molecules, 2023):

test system: HT29; assay: MTT cytotoxicity, HT29; format: cell-based, human; settings: Homo sapiens, HT-29, 48 h incubation, read-out: Cytotoxic effect, IC50
Experimental: (§1) Cytotoxicity was evaluated against fifteen adherent human cancer cell lines using the MTT test: colorectal adenocarcinoma cells Caco2 (ATCC® HTB-37™), colorectal adenocarcinoma cells HT29 (ATCC® HTB-38™), colon colorectal carcinoma HCT116 (ATCC® CCL-247™), colon adenocarcinoma COLO205 (ATCC® CCL-222™), colorectal adenocarcinoma SW620 (ATCC® CCL-227™), colorectal adenocarcinoma grade IV LoVo (ATCC® CCL-229™), hepatocellular carcinoma Hep 3b (ATCC® HB-8064™), endometrium adenocarcinoma HEC1A (ATCC® HTB-112™), Ishikawa (99040201; Sigma–Aldrich Sigma, St. Louis, MO, USA), cervical adenocarcinoma cells HeLa (ATCC® CCL-2™), lung epithelial carcinoma A549 (ATCC® CRM-CCL-185™), breast epithelial adenocarcinoma cell positive for estrogen and progesterone receptors MCF7 (ATCC® HTB-22™) and negative for expression of estrogen receptor HCC38 (ATCC® CRL-2314™), acute promyelocytic leukemia HL-60 (ATCC® CCL-240™), skin melanoma WM115 (ATCC® CRL-1676™), and 1 suspension cancer cell line: acute lymphoblastic leukemia NALM6 (purchased from the German Collection of Microorganisms and Cell Cultures). HT29, NALM6, HCC-38 and HL-60 cells were cultured in RPMI 1640 medium (Thermo Fisher Scientific, Waltham, MA, USA) supplemented with 10% fetal bovine serum and antibiotic (gentamicin 25 μg ml^−1) (Gibco, Grand Island, New York, NY, USA). For the remaining tumor cell lines, Dulbecco’s minimal essential medium (DMEM, Lonza, Visp, Switzerland) supplemented with 10% fetal bovine serum and antibiotic instead of RPMI 1640 was used. In addition, Human Microvascular Endothelial Cells (HMEC1), which were obtained from the American Type Culture Collection (Manassas, VA, USA), were used as a model of normal cells. HMEC-1 were cultured in MCDB131 medium (Corning Life Sciences, Corning, NY, USA), supplemented with 10% fetal bovine serum, 10 ng/mL Epidermal Growth Factor (Millipore, Burlington, MA, USA) and 10 mM glutamine (Corning Life Sciences). All cells were grown at 37 °C in humidified atmosphere of 5% CO2 in air. The exponential growth of cells was maintained by regular passaging at 90% confluence three times a week using 0.025% trypsin/EDTA (Gibco, Grand Island, New York, NY, USA).
(§2) The cytotoxicity was tested by a standard MTT [3-(4,5-dimethylthiazol-2-yl)-2,5-diphenyltetrazolium bromide] (Sigma, St. Louis, MO, USA) microplate cell viability assay. The anticancer activity of the investigated compounds was evaluated in vitro on the basis of their ability to inhibit the proliferation of various cancer cells. Exponentially growing cells were seeded a day before the experiment into a 96-well microplate (Nunc, Roskilde, Denmark) at a density up to 6–8 × 10^3 cells/mL (depending on the cell line) and exposed to the test compounds at a wide range of concentrations for 48 h. Subsequently, various concentrations of the studied compounds (10^−7–10^−5 M) freshly prepared in DMSO (final concentration of <0.1% DMSO) and diluted with complete culture medium were added. After 48 h incubation, the cells were immediately subjected to a cell viability assay. At this time point, the number of viable cells in each well was estimated by the MTT test. Briefly, 50 µL (5 mg/mL final concentration) of MTT was added to each microplate well. This procedure was then followed by a three- to four-hour incubation at 37 °C. After incubation, MTT solution was replaced with 100 µL DMSO/well, which solubilized the formazan crystals formed by the dehydrogenases of metabolically active cells. Purple formazan absorbance was measured spectrophotometrically at 570 nm.

Compound	IC50
Cc1cc(C)n(C(N)=S)n1 [1a]	> 200 µM
CCc1cc(CC)n(C(N)=S)n1 [1b]	> 200 µM
NC(=S)n1nc(-c2ccccc2)cc1O [1c]	> 200 µM
Cc1cc(O)n(C(N)=S)n1 [1d]	> 200 µM

test system: Colo205; assay: MTT cytotoxicity, Colo205; format: cell-based, human; settings: Homo sapiens, COLO 205, 48 h incubation, read-out: Cytotoxic effect, IC50
Experimental: as §1, §2

Compound	IC50
Cc1cc(C)n(C(N)=S)n1 [1a]	> 200 µM
CCc1cc(CC)n(C(N)=S)n1 [1b]	> 200 µM
NC(=S)n1nc(-c2ccccc2)cc1O [1c]	> 200 µM
Cc1cc(O)n(C(N)=S)n1 [1d]	> 200 µM

test system: SW620; assay: MTT cytotoxicity, SW620; format: cell-based, human; settings: Homo sapiens, SW-620, 48 h incubation, read-out: Cytotoxic effect, IC50
Experimental: as §1, §2

Compound	IC50
Cc1cc(C)n(C(N)=S)n1 [1a]	> 200 µM
CCc1cc(CC)n(C(N)=S)n1 [1b]	> 200 µM
NC(=S)n1nc(-c2ccccc2)cc1O [1c]	> 200 µM
Cc1cc(O)n(C(N)=S)n1 [1d]	> 200 µM

test system: LoVo; assay: MTT cytotoxicity, LoVo; format: cell-based, human; settings: Homo sapiens, 48 h incubation, read-out: Cytotoxic effect, IC50
Experimental: as §1, §2

Compound	IC50
Cc1cc(C)n(C(N)=S)n1 [1a]	> 200 µM
CCc1cc(CC)n(C(N)=S)n1 [1b]	> 200 µM
NC(=S)n1nc(-c2ccccc2)cc1O [1c]	> 200 µM
Cc1cc(O)n(C(N)=S)n1 [1d]	> 200 µM

test system: Caco2; assay: MTT cytotoxicity, Caco2; format: cell-based, human; settings: Homo sapiens, Caco-2, 48 h incubation, read-out: Cytotoxic effect, IC50
Experimental: as §1, §2

Compound	IC50
Cc1cc(C)n(C(N)=S)n1 [1a]	> 200 µM
CCc1cc(CC)n(C(N)=S)n1 [1b]	> 200 µM
NC(=S)n1nc(-c2ccccc2)cc1O [1c]	> 200 µM
Cc1cc(O)n(C(N)=S)n1 [1d]	> 200 µM

test system: Hep 3b; assay: MTT cytotoxicity, Hep 3b; format: cell-based, human; settings: Homo sapiens, Hep3B, 48 h incubation, read-out: Cytotoxic effect, IC50
Experimental: as §1, §2

Compound	IC50
Cc1cc(C)n(C(N)=S)n1 [1a]	> 200 µM
CCc1cc(CC)n(C(N)=S)n1 [1b]	> 200 µM
NC(=S)n1nc(-c2ccccc2)cc1O [1c]	> 200 µM
Cc1cc(O)n(C(N)=S)n1 [1d]	> 200 µM

test system: HEC1A; assay: MTT cytotoxicity, HEC1A; format: cell-based, human; settings: Homo sapiens, HEC-1-A, 48 h incubation, read-out: Cytotoxic effect, IC50
Experimental: as §1, §2

Compound	IC50
Cc1cc(C)n(C(N)=S)n1 [1a]	111 ± 9.6 µM
CCc1cc(CC)n(C(N)=S)n1 [1b]	114 ± 11.3 µM
NC(=S)n1nc(-c2ccccc2)cc1O [1c]	110 ± 8.9 µM
Cc1cc(O)n(C(N)=S)n1 [1d]	99.1 ± 5.7 µM

test system: Ishikawa; assay: MTT cytotoxicity, Ishikawa; format: cell-based, human; settings: Homo sapiens, 48 h incubation, read-out: Cytotoxic effect, IC50
Experimental: as §1, §2

Compound	IC50
Cc1cc(C)n(C(N)=S)n1 [1a]	124 ± 4.8 µM
CCc1cc(CC)n(C(N)=S)n1 [1b]	100 ± 4.6 µM
NC(=S)n1nc(-c2ccccc2)cc1O [1c]	94 ± 2.4 µM
Cc1cc(O)n(C(N)=S)n1 [1d]	> 200 µM

test system: Hela; assay: MTT cytotoxicity, Hela; format: cell-based, human; settings: Homo sapiens, 48 h incubation, read-out: Cytotoxic effect, IC50
Experimental: as §1, §2

Compound	IC50
Cc1cc(C)n(C(N)=S)n1 [1a]	> 200 µM
CCc1cc(CC)n(C(N)=S)n1 [1b]	> 200 µM
NC(=S)n1nc(-c2ccccc2)cc1O [1c]	> 200 µM
Cc1cc(O)n(C(N)=S)n1 [1d]	> 200 µM

test system: A549; assay: MTT cytotoxicity, A549; format: cell-based, human; settings: Homo sapiens, 48 h incubation, read-out: Cytotoxic effect, IC50
Experimental: as §1, §2

Compound	IC50
Cc1cc(C)n(C(N)=S)n1 [1a]	> 200 µM
CCc1cc(CC)n(C(N)=S)n1 [1b]	> 200 µM
NC(=S)n1nc(-c2ccccc2)cc1O [1c]	> 200 µM
Cc1cc(O)n(C(N)=S)n1 [1d]	> 200 µM

test system: HCC38; assay: MTT cytotoxicity, HCC38; format: cell-based, human; settings: Homo sapiens, 48 h incubation, read-out: Cytotoxic effect, IC50
Experimental: as §1, §2

Compound	IC50
Cc1cc(C)n(C(N)=S)n1 [1a]	> 200 µM
CCc1cc(CC)n(C(N)=S)n1 [1b]	> 200 µM
NC(=S)n1nc(-c2ccccc2)cc1O [1c]	> 200 µM
Cc1cc(O)n(C(N)=S)n1 [1d]	> 200 µM

test system: MCF7; assay: MTT cytotoxicity, MCF7; format: cell-based, human; settings: Homo sapiens, 48 h incubation, read-out: Cytotoxic effect, IC50
Experimental: as §1, §2

Compound	IC50
Cc1cc(C)n(C(N)=S)n1 [1a]	> 200 µM
CCc1cc(CC)n(C(N)=S)n1 [1b]	> 200 µM
NC(=S)n1nc(-c2ccccc2)cc1O [1c]	> 200 µM
Cc1cc(O)n(C(N)=S)n1 [1d]	> 200 µM

test system: WM115; assay: MTT cytotoxicity, WM115; format: cell-based, human; settings: Homo sapiens, WM-115, 48 h incubation, read-out: Cytotoxic effect, IC50
Experimental: as §1, §2

Compound	IC50
Cc1cc(C)n(C(N)=S)n1 [1a]	> 200 µM
CCc1cc(CC)n(C(N)=S)n1 [1b]	> 200 µM
NC(=S)n1nc(-c2ccccc2)cc1O [1c]	> 200 µM
Cc1cc(O)n(C(N)=S)n1 [1d]	90.9 ± 10.2 µM

test system: NALM6; assay: MTT cytotoxicity, NALM6; format: cell-based, human; settings: Homo sapiens, NALM-6, 48 h incubation, read-out: Cytotoxic effect, IC50
Experimental: as §1, §2

Compound	IC50
Cc1cc(C)n(C(N)=S)n1 [1a]	> 200 µM
CCc1cc(CC)n(C(N)=S)n1 [1b]	> 200 µM
NC(=S)n1nc(-c2ccccc2)cc1O [1c]	152 ± 26.7 µM
Cc1cc(O)n(C(N)=S)n1 [1d]	> 200 µM

test system: HL60; assay: MTT cytotoxicity, HL60; format: cell-based, human; settings: Homo sapiens, HL-60, 48 h incubation, read-out: Cytotoxic effect, IC50
Experimental: as §1, §2

Compound	IC50
Cc1cc(C)n(C(N)=S)n1 [1a]	> 200 µM
CCc1cc(CC)n(C(N)=S)n1 [1b]	> 200 µM
NC(=S)n1nc(-c2ccccc2)cc1O [1c]	> 200 µM
Cc1cc(O)n(C(N)=S)n1 [1d]	> 200 µM

test system: not listed separately; assay: Lipophilicity by RP-TLC; format: physicochemical; design: key: RM = log(1/Rf − 1), Rf = a/b; settings: eluent AcCN: H2O at 30–70% v/v, 22 °C
Experimental: All the experimental solutions of standard substances (0.1 mg/mL) were prepared by dissolving ligands (1a–1d) or ruthenium complexes (2a/3a–2d/3d) in ethanol. Commercially-available octadecyl-modified silica aluminum sheets (20 × 20 cm) were cut into 5 × 10 cm plates. The plates were manually spotted with 1.0 μL of freshly prepared solutions using automatic pipets, 5 mm from each edge. The chromatograms for all compounds (1a/2a/3a–1d/2d/3d) were developed using a horizontal developing chamber and the solvent migration distance was about 4.5 cm. The plates were visually inspected under UV light at 254 nm. Each zone was clearly marked and its distance was manually measured. The RP-TLC analyses of lipophilicity were performed at ambient temperature (22 °C). In this experiment, all measurements were performed in triplicate and the obtained results were used in further calculations. The acetonitrile and water mixtures for ligands 1a–1d and arene–ruthenium(II) complexes 2a/3a–2d/3d were used as mobile phases, with […] content increasing in the range of 30–70% v/v, at 5% intervals. Values of the chromatographic retention coefficient Rf (as shown Formula (1)) and RM (as shown Formula (2)), based on received chromatograms, were calculated and converted as follows:(1) Rf=a/b (2) RM=log1/Rf−1

Compound	Lipophilicity, RM
Cc1cc(C)n(C(N)=S)n1 [1a]	2.32
CCc1cc(CC)n(C(N)=S)n1 [1b]	2.51
NC(=S)n1nc(-c2ccccc2)cc1O [1c]	2.04
Cc1cc(O)n(C(N)=S)n1 [1d]	1.29
